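A five-concentration, 48-hour dose response in 96-well plates underlies each endpoint, interpolated linearly between surrounding concentrations. GI50 = concentration required for 50% inhibition of growth.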 The source made the active and inactive calls. No stated cut-off is given here; in the data, active = GI50 up to about 1.1 µM and inactive = higher.
How the values were obtained:
Test in all cases: inhibition of tumour cell growth, NCI panel, 48 h
SK-MEL-28 = tested on: SK-MEL-28
SF-268 = tested on: SF-268
HCC 2998 = tested on: HCC 2998
A498 = tested on: A498
OVCAR-8 = tested on: OVCAR-8
K562 = tested on: K562
786-0 = tested on: 786-0
COLO 205 = tested on: COLO 205
HL-60 = tested on: HL-60
NCI-H460 = tested on: NCI-H460
OVCAR-3 = tested on: OVCAR-3
UACC-62 = tested on: UACC-62
EKVX = tested on: EKVX
SF-295 = tested on: SF-295
SK-MEL-2 = tested on: SK-MEL-2
MDA-N = tested on: MDA-N
HCT-116 = tested on: HCT-116
KM12 = tested on: KM12
CAKI-1 = tested on: CAKI-1
MOLT-4 = tested on: MOLT-4
NCI-H23 = tested on: NCI-H23
OVCAR-5 = tested on: OVCAR-5
HOP-92 = tested on: HOP-92
SW-620 = tested on: SW-620
HOP-62 = tested on: HOP-62
HT-29 = tested on: HT-29
CCRF-CEM = tested on: CCRF-CEM
DU-145 = tested on: DU-145
RPMI-8226 = tested on: RPMI-8226
NCI-H226 = tested on: NCI-H226
UO-31 = tested on: UO-31
SK-OV-3 = tested on: SK-OV-3
SF-539 = tested on: SF-539
PC-3 = tested on: PC-3
T47D = tested on: T47D
TK-10 = tested on: TK-10
MDA-MB-435 = tested on: MDA-MB-435
IGROV-1 = tested on: IGROV-1
M14 = tested on: M14
MCF7 = tested on: MCF7
SK-MEL-5 = tested on: SK-MEL-5
NCI/ADR-RES = tested on: NCI/ADR-RES
Malme-3M = tested on: Malme-3M
LOX IMVI = tested on: LOX IMVI
NCI-H522 = tested on: NCI-H522
SN12C = tested on: SN12C
SNB-19 = tested on: SNB-19
A549 = tested on: A549
SNB-75 = tested on: SNB-75
U-251 = tested on: U-251
ACHN = tested on: ACHN
OVCAR-4 = tested on: OVCAR-4
SR = tested on: SR
MDA-MB-231 = tested on: MDA-MB-231
HCT-15 = tested on: HCT-15
BT-549 = tested on: BT-549
Hs-578T = tested on: Hs-578T
UACC-257 = tested on: UACC-257
RXF 393 = tested on: RXF 393

With C=C1CC(Cn2ccc(=O)[nH]c2=O)(c2ccc(Cl)cc2)OC1=O (stereo unspecified) the GI50 (SK-MEL-28) was 4.3 µM (inactive), the GI50 (SF-268) was 19.8 µM (inactive) and the GI50 (HCC 2998) was 13.9 µM (inactive). The GI50 (A498) was 16.4 µM (inactive), the GI50 (OVCAR-8) was 7.87 µM (inactive) and the GI50 (K562) was 0.631 µM (active). The GI50 (786-0) was 2.04 µM (inactive), the GI50 (COLO 205) was 1.73 µM (inactive) and the GI50 (HL-60) was 8.47 µM (inactive). For the same molecule, the GI50 (NCI-H460) was 9.53 µM (inactive), the GI50 (OVCAR-3) was 7.1 µM (inactive) and the GI50 (UACC-62) was 5.15 µM (inactive). The GI50 (EKVX) was 16.4 µM (inactive), the GI50 (SF-295) was 18.8 µM (inactive) and the GI50 (SK-MEL-2) was 5.65 µM (inactive). For the same molecule, the GI50 (MDA-N) was 4.58 µM (inactive), the GI50 (HCT-116) was 2.3 µM (inactive) and the GI50 (KM12) was 14 µM (inactive). For the same molecule, the GI50 (CAKI-1) was 2.42 µM (inactive), the GI50 (MOLT-4) was 1.78 µM (inactive) and the GI50 (NCI-H23) was 5.48 µM (inactive). For the same molecule, the GI50 (OVCAR-5) was 15.7 µM (inactive), the GI50 (HOP-92) was 2.07 µM (inactive) and the GI50 (SW-620) was 1.83 µM (inactive). The GI50 (HOP-62) was 18.2 µM (inactive), the GI50 (HT-29) was 5.41 µM (inactive) and the GI50 (CCRF-CEM) was 1.63 µM (inactive). For the same molecule, the GI50 (DU-145) was 9.53 µM (inactive), the GI50 (RPMI-8226) was 1.28 µM (inactive) and the GI50 (NCI-H226) was 22.9 µM (inactive). For the same molecule, the GI50 (UO-31) was 18 µM (inactive), the GI50 (SK-OV-3) was 15 µM (inactive) and the GI50 (SF-539) was 15.6 µM (inactive). For the same molecule, the GI50 (PC-3) was 6.64 µM (inactive), the GI50 (T47D) was 3.03 µM (inactive) and the GI50 (TK-10) was 1.57 µM (inactive). For the same molecule, the GI50 (MDA-MB-435) was 8.15 µM (inactive), the GI50 (IGROV-1) was 2.86 µM (inactive) and the GI50 (M14) was 3.56 µM (inactive). The GI50 (MCF7) was 1.87 µM (inactive), the GI50 (SK-MEL-5) was 3.05 µM (inactive) and the GI50 (NCI/ADR-RES) was 4.56 µM (inactive). For the same molecule, the GI50 (Malme-3M) was 2.46 µM (inactive), the GI50 (LOX IMVI) was 2.14 µM (inactive) and the GI50 (NCI-H522) was 0.839 µM (active). The GI50 (SN12C) was 11.6 µM (inactive), the GI50 (SNB-19) was 31.4 µM (inactive) and the GI50 (A549) was 16.9 µM (inactive). The GI50 (SNB-75) was 15.1 µM (inactive), the GI50 (U-251) was 17.7 µM (inactive) and the GI50 (ACHN) was 5.15 µM (inactive). For the same molecule, the GI50 (OVCAR-4) was 1.88 µM (inactive), the GI50 (SR) was 2.02 µM (inactive) and the GI50 (MDA-MB-231) was 14.6 µM (inactive). The GI50 (HCT-15) was 2.45 µM, the GI50 (BT-549) was 4.1 µM (inactive) and the GI50 (Hs-578T) was 10.5 µM (inactive). For the same molecule, the GI50 (UACC-257) was 3.58 µM (inactive).
In the case of CCOC(=O)C[C@@H]1C2(C=C[C@@]13CO3)OCC(C)(C)CO2, the GI50 (SK-MEL-28) is reported as > 100 µM (inactive), the GI50 (SF-268) is reported as > 100 µM (inactive) and the GI50 (HCC 2998) is reported as > 100 µM (inactive). For the same molecule, the GI50 (A498) was > 100 µM (inactive), the GI50 (OVCAR-8) was > 100 µM (inactive) and the GI50 (K562) was > 100 µM (inactive). For the same molecule, the GI50 (COLO 205) was > 100 µM (inactive), the GI50 (HL-60) was > 100 µM (inactive) and the GI50 (NCI-H460) was > 100 µM (inactive). For the same molecule, the GI50 (OVCAR-3) was > 100 µM (inactive), the GI50 (UACC-62) was > 100 µM (inactive) and the GI50 (EKVX) was > 100 µM (inactive). The GI50 (SF-295) was > 100 µM (inactive), the GI50 (SK-MEL-2) was > 100 µM (inactive) and the GI50 (MDA-N) was > 100 µM (inactive). For the same molecule, the GI50 (HCT-116) was > 100 µM (inactive), the GI50 (CAKI-1) was > 100 µM (inactive) and the GI50 (MOLT-4) was > 100 µM (inactive). The GI50 (NCI-H23) was > 100 µM (inactive), the GI50 (OVCAR-5) was > 100 µM (inactive) and the GI50 (HOP-92) was > 100 µM (inactive). The GI50 (SW-620) was > 100 µM (inactive), the GI50 (HOP-62) was > 100 µM (inactive) and the GI50 (HT-29) was > 100 µM (inactive). The GI50 (CCRF-CEM) was > 100 µM (inactive), the GI50 (DU-145) was > 100 µM (inactive) and the GI50 (RXF 393) was > 100 µM (inactive). For the same molecule, the GI50 (NCI-H226) was > 100 µM (inactive), the GI50 (UO-31) was > 100 µM (inactive) and the GI50 (SK-OV-3) was > 100 µM (inactive). The GI50 (SF-539) was > 100 µM (inactive), the GI50 (PC-3) was > 100 µM (inactive) and the GI50 (T47D) was > 100 µM (inactive). For the same molecule, the GI50 (TK-10) was > 100 µM (inactive), the GI50 (MDA-MB-435) was > 100 µM (inactive) and the GI50 (IGROV-1) was > 100 µM (inactive). The GI50 (M14) was > 100 µM (inactive), the GI50 (MCF7) was > 100 µM (inactive) and the GI50 (SK-MEL-5) was > 100 µM (inactive). For the same molecule, the GI50 (NCI/ADR-RES) was > 100 µM (inactive), the GI50 (Malme-3M) was > 100 µM (inactive) and the GI50 (LOX IMVI) was > 100 µM (inactive). For the same molecule, the GI50 (SN12C) was > 100 µM (inactive), the GI50 (A549) was > 100 µM (inactive) and the GI50 (SNB-75) was > 100 µM (inactive). For the same molecule, the GI50 (U-251) was > 100 µM (inactive), the GI50 (OVCAR-4) was 8.2 µM (inactive) and the GI50 (SR) was > 100 µM (inactive). The GI50 (MDA-MB-231) was > 100 µM (inactive), the GI50 (HCT-15) was > 100 µM and the GI50 (BT-549) was > 100 µM (inactive). For the same molecule, the GI50 (Hs-578T) was > 100 µM (inactive) and the GI50 (UACC-257) was > 100 µM (inactive).

— ChEMBL document CHEMBL1201862, “PubChem BioAssay data set” (2004)
